Data as given in the supplement of paper PMC10307832.

Key:
Experiment in all cases: relative viability (nuclei count vs DMSO), 5 days (fraction); higher = more cells survive
Etoposide + Decitabine = compound: COc1cc([C@@H]2c3cc4c(cc3[C@@H](O[C@@H]3O[C@@H]5CO[C@@H](C)O[C@H]5[C@H](O)[C@H]3O)[C@H]3COC(=O)[C@H]23)OCO4)cc(OC)c1O [Etoposide] + Nc1ncn([C@H]2C[C@H](O)[C@@H](CO)O2)c(=O)n1 [Decitabine] (partner 2 µM)
How it was run: (§1)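 Nuclei were stained with Hoechst during a one-step fixation (final 0.05% Triton X-100, 1% formaldehyde, 1 ug/ml Hoechst) carried out 5 days after dosing, then counted on 4× images. The cells, lung cancer lines in 1536-well plates, had been dosed by pin tool the day after seeding with one drug alone or a fixed anchor-drug dose plus five library-drug doses (not always all listed) in √10 steps. Relative viability is the nuclei count in treated wells divided by that in vehicle wells, and each value is the median of duplicate plates.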

Etoposide + Phenformin = compound: COc1cc([C@@H]2c3cc4c(cc3[C@@H](O[C@@H]3O[C@@H]5CO[C@@H](C)O[C@H]5[C@H](O)[C@H]3O)[C@H]3COC(=O)[C@H]23)OCO4)cc(OC)c1O [Etoposide] + N=C(N)NC(=N)NCCc1ccccc1 [Phenformin] (partner 250 µM)
How it was run: as §1

Etoposide + Vorinostat = compound: COc1cc([C@@H]2c3cc4c(cc3[C@@H](O[C@@H]3O[C@@H]5CO[C@@H](C)O[C@H]5[C@H](O)[C@H]3O)[C@H]3COC(=O)[C@H]23)OCO4)cc(OC)c1O [Etoposide] + O=C(CCCCCCC(=O)Nc1ccccc1)NO [Vorinostat] (partner 1 µM)
How it was run: as §1

Bleomycin + Palbociclib = compound: CC1=C(N=C(N=C1N)[C@H](CC(=O)N)NC[C@@H](C(=O)N)N)C(=O)N[C@@H]([C@H](C2=CN=CN2)OC3C(C(C(C(O3)CO)O)O)OC4C(C(C(C(O4)CO)O)OC(=O)N)O)C(=O)N[C@H](C)[C@H]([C@H](C)C(=O)N[C@@H]([C@@H](C)O)C(=O)NCCC5=NC(=CS5)C6=NC(=CS6)C(=O)NCCC[S+](C)C)O [Bleomycin] + CC(=O)c1c(C)c2cnc(Nc3ccc(N4CCNCC4)cn3)nc2n(C2CCCC2)c1=O [Palbociclib] (partner 0.5 µM); settings: main component drawn
How it was run: as §1

Q: How did the relative viability (Etoposide + Decitabine; first compound 0.01 µM) turn out when UMC-11 was run?
A: 0.462

Q: And the relative viability (Etoposide + Decitabine; first compound 0.03162 µM)?
A: 0.621

Q: What about the relative viability (Etoposide + Decitabine; first compound 0.1 µM) of the same cell line?
A: 0.355

Q: And the relative viability (Etoposide + Decitabine; first compound 0.3162 µM)?
A: 0.356

Q: What about the relative viability (Etoposide + Decitabine; first compound 1 µM) of the same cell line?
A: 0.319

Q: What about the relative viability (Etoposide + Phenformin; first compound 0.01 µM) of the same cell line?
A: 0.333

Q: And the relative viability (Etoposide + Phenformin; first compound 0.03162 µM)?
A: 0.341

Q: What about the relative viability (Etoposide + Phenformin; first compound 0.1 µM) of the same cell line?
A: 0.275

Q: And the relative viability (Etoposide + Phenformin; first compound 0.3162 µM)?
A: 0.233

Q: What about the relative viability (Etoposide + Phenformin; first compound 1 µM) of the same cell line?
A: 0.207

Q: And the relative viability (Etoposide + Vorinostat; first compound 0.01 µM)?
A: 0.373

Q: What about the relative viability (Etoposide + Vorinostat; first compound 0.03162 µM) of the same cell line?
A: 0.376

Q: And the relative viability (Etoposide + Vorinostat; first compound 0.1 µM)?
A: 0.323

Q: And the relative viability (Etoposide + Vorinostat; first compound 0.3162 µM)?
A: 0.228

Q: And the relative viability (Etoposide + Vorinostat; first compound 1 µM)?
A: 0.199

Q: And the relative viability (Bleomycin + Palbociclib; first compound 0.01 µM)?
A: 0.311

Q: What about the relative viability (Bleomycin + Palbociclib; first compound 0.03162 µM) of the same cell line?
A: 0.334

Q: What about the relative viability (Bleomycin + Palbociclib; first compound 0.1 µM) of the same cell line?
A: 0.355

Q: And the relative viability (Bleomycin + Palbociclib; first compound 0.3162 µM)?
A: 0.313

Q: What about the relative viability (Bleomycin + Palbociclib; first compound 1 µM) of the same cell line?
A: 0.263
